{"source": "patent US20250019372A1", "about": "“CRYSTALLINE FORMS OF A RIPK1 INHIBITOR” (RIGEL PHARMACEUTICALS, INC., priority 2021, published 2025)", "test": "Relative thermodynamic stability of the crystalline forms", "format": "physicochemical", "settings": "compared to the other identified Forms A, B, and C; temperature range of RT to 50° C.", "data": [{"smiles": "CN1C(=O)[C@@H](NC(=O)c2n[nH]c(Cc3ccccc3)n2)COc2ccc(C#CC(C)(C)O)cc21", "note": "[Form D, (S)-5-benzyl-N-(7-(3-hydroxy-3-methylbut-1-yn-1-yl)-5-methyl-4-oxo-2,3,4,5-tetrahydrobenzo[b][1,4]oxazepin-3-yl)-1H-1,2,4-triazole-3-carboxamide]", "values": [{"measurement": "thermodynamic stability of the crystalline form", "value": "most thermodynamically stable crystalline form"}]}]}
